Laboratory results published in PubChem BioAssay AID2060884 (Molecular Pharmacology Branch, DTP, NCI, 2025).
Values belong to the molecule of their own block, whether it stands above or below them.

Tested on: NCI-H929 complex spheroids, viability % test/control
Test: Anticancer human tumor NCI-H929 cell line growth inhibition [RAS];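 note: compound exposure lasted seven days before viability was read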;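 for viability, T/C: 100% = DMSO vehicle control viability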
Settings: for IC50: curve of first compound; for viability, T/C: stronger effect = lower value
Summary of the method: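 Tumour cells grown as complex spheroids with HUVEC endothelial cells and mesenchymal stem cells, treated with RAS pathway inhibitor combinations. Each agent spans half-log steps from near clinical Cmax, or 10 microM where Cmax is unknown.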

[1] = second compound 0.000949 µM, first compound 0.00316 µM
[2] = second compound 0.000949 µM, first compound 0.01 µM
[3] = second compound 0.000949 µM, first compound 0.0316 µM
[4] = second compound 0.000949 µM, first compound 0.1 µM
[5] = second compound 0.000949 µM, first compound 0.316 µM
[6] = second compound 0.000949 µM, first compound 1 µM
[7] = second compound 0.003 µM, first compound 0.00316 µM
[8] = second compound 0.003 µM, first compound 0.01 µM
[9] = second compound 0.003 µM, first compound 0.0316 µM
[10] = second compound 0.003 µM, first compound 0.1 µM
[11] = second compound 0.003 µM, first compound 0.316 µM
[12] = second compound 0.003 µM, first compound 1 µM
[13] = second compound 0.00949 µM, first compound 0.00316 µM
[14] = second compound 0.00949 µM, first compound 0.01 µM
[15] = second compound 0.00949 µM, first compound 0.0316 µM
[16] = second compound 0.00949 µM, first compound 0.1 µM
[17] = second compound 0.00949 µM, first compound 0.316 µM
[18] = second compound 0.00949 µM, first compound 1 µM
[19] = second compound 0.03 µM, first compound 0.00316 µM
[20] = second compound 0.03 µM, first compound 0.01 µM
[21] = second compound 0.03 µM, first compound 0.0316 µM
[22] = second compound 0.03 µM, first compound 0.1 µM
[23] = second compound 0.03 µM, first compound 0.316 µM
[24] = second compound 0.03 µM, first compound 1 µM
[25] = second compound 0.0949 µM, first compound 0.00316 µM
[26] = second compound 0.0949 µM, first compound 0.01 µM
[27] = second compound 0.0949 µM, first compound 0.0316 µM
[28] = second compound 0.0949 µM, first compound 0.1 µM
[29] = second compound 0.0949 µM, first compound 0.316 µM
[30] = second compound 0.0949 µM, first compound 1 µM
[31] = second compound 0.3 µM, first compound 0.00316 µM
[32] = second compound 0.3 µM, first compound 0.01 µM
[33] = second compound 0.3 µM, first compound 0.0316 µM
[34] = second compound 0.3 µM, first compound 0.1 µM
[35] = second compound 0.3 µM, first compound 0.316 µM
[36] = second compound 0.3 µM, first compound 1 µM

- IC50 (second compound 0.000949 µM): 1.38 nM
- IC50 (second compound 0.003 µM): 1.45 nM
- IC50 (second compound 0.00949 µM): 1.34 nM
- IC50 (second compound 0.03 µM): 1.4 nM
- IC50 (second compound 0.0949 µM): 1.22 nM
- IC50 (second compound 0.3 µM): < 0.949 nM
SMILES: CCc1c2c(nc3ccc(O)cc13)-c1cc3c(c(=O)n1C2)COC(=O)[C@]3(O)CC + CCn1c(-c2cccnc2C(C)OC)c2c3cc(ccc31)N1CCOC(CC(NC(=O)C(C(C)C)N(C)C(=O)C3(F)CCN(C(=O)C#CC(C)(C)N(C)C)CC3)C(=O)N3CCCC(N3)C(=O)OCC(C)(C)C2)C1
- viability, T/C (second compound 0.000949 µM, first compound 0.000949 µM): 72.7%
- viability, T/C (second compound 0.000949 µM, first compound 0.003 µM): 2.65%
- viability, T/C (second compound 0.000949 µM, first compound 0.00949 µM): 1.03%
- viability, T/C (second compound 0.000949 µM, first compound 0.03 µM): 1.2%
- viability, T/C (second compound 0.000949 µM, first compound 0.0949 µM): 1.15%
- viability, T/C (second compound 0.000949 µM, first compound 0.3 µM): 0.54%
- viability, T/C (second compound 0.003 µM, first compound 0.000949 µM): 77%
- viability, T/C (second compound 0.003 µM, first compound 0.003 µM): 3.29%
- viability, T/C (second compound 0.003 µM, first compound 0.00949 µM): 1.02%
- viability, T/C (second compound 0.003 µM, first compound 0.03 µM): 1.1%
- viability, T/C (second compound 0.003 µM, first compound 0.0949 µM): 1.07%
- viability, T/C (second compound 0.003 µM, first compound 0.3 µM): 0.54%
- viability, T/C (second compound 0.00949 µM, first compound 0.000949 µM): 70.4%
- viability, T/C (second compound 0.00949 µM, first compound 0.003 µM): 2.82%
- viability, T/C (second compound 0.00949 µM, first compound 0.00949 µM): 0.87%
- viability, T/C (second compound 0.00949 µM, first compound 0.03 µM): 1.06%
- viability, T/C (second compound 0.00949 µM, first compound 0.0949 µM): 1.05%
- viability, T/C (second compound 0.00949 µM, first compound 0.3 µM): 0.47%
- viability, T/C (second compound 0.03 µM, first compound 0.000949 µM): 74.8%
- viability, T/C (second compound 0.03 µM, first compound 0.003 µM): 1.48%
- viability, T/C (second compound 0.03 µM, first compound 0.00949 µM): 0.74%
- viability, T/C (second compound 0.03 µM, first compound 0.03 µM): 0.96%
- viability, T/C (second compound 0.03 µM, first compound 0.0949 µM): 0.84%
- viability, T/C (second compound 0.03 µM, first compound 0.3 µM): 0.42%
- viability, T/C (second compound 0.0949 µM, first compound 0.000949 µM): 63.8%
- viability, T/C (second compound 0.0949 µM, first compound 0.003 µM): 1.38%
- viability, T/C (second compound 0.0949 µM, first compound 0.00949 µM): 0.98%
- viability, T/C (second compound 0.0949 µM, first compound 0.03 µM): 0.71%
- viability, T/C (second compound 0.0949 µM, first compound 0.0949 µM): 0.87%
- viability, T/C (second compound 0.0949 µM, first compound 0.3 µM): 0.47%
- viability, T/C (second compound 0.3 µM, first compound 0.000949 µM): 48.2%
- viability, T/C (second compound 0.3 µM, first compound 0.003 µM): 1.54%
- viability, T/C (second compound 0.3 µM, first compound 0.00949 µM): 0.75%
- viability, T/C (second compound 0.3 µM, first compound 0.03 µM): 0.83%
- viability, T/C (second compound 0.3 µM, first compound 0.0949 µM): 0.84%
- viability, T/C (second compound 0.3 µM, first compound 0.3 µM): 0.44%

- IC50 (second compound 0.000949 µM): 625 nM
- IC50 (second compound 0.003 µM): 290 nM
- IC50 (second compound 0.00949 µM): 69 nM
- IC50 (second compound 0.03 µM): < 3.16 nM
- IC50 (second compound 0.0949 µM): < 3.16 nM
- IC50 (second compound 0.3 µM): < 3.16 nM
SMILES: O=C(c1ccc(F)c(F)c1Nc1ccc(I)cc1F)N1CC(O)([C@@H]2CCCCN2)C1 + CCn1c(-c2cc(N3CCN(C)CC3)cnc2C(C)OC)c2c3cc(ccc31)-c1csc(n1)CC(NC(=O)C1CC1C)C(=O)N1CCCC(N1)C(=O)OCC(C)(C)C2
- viability, T/C [1]: 93.3%
- viability, T/C [2]: 92.5%
- viability, T/C [3]: 103%
- viability, T/C [4]: 108%
- viability, T/C [5]: 97.3%
- viability, T/C [6]: 17.4%
- viability, T/C [7]: 90.8%
- viability, T/C [8]: 101%
- viability, T/C [9]: 111%
- viability, T/C [10]: 119%
- viability, T/C [11]: 45.5%
- viability, T/C [12]: 7.02%
- viability, T/C [13]: 110%
- viability, T/C [14]: 117%
- viability, T/C [15]: 113%
- viability, T/C [16]: 19.9%
- viability, T/C [17]: 6.27%
- viability, T/C [18]: 3.63%
- viability, T/C [19]: 31.8%
- viability, T/C [20]: 15.7%
- viability, T/C [21]: 4.87%
- viability, T/C [22]: 2.83%
- viability, T/C [23]: 2.77%
- viability, T/C [24]: 2.07%
- viability, T/C [25]: 4.34%
- viability, T/C [26]: 3.41%
- viability, T/C [27]: 1.75%
- viability, T/C [28]: 1.48%
- viability, T/C [29]: 1.32%
- viability, T/C [30]: 0.89%
- viability, T/C [31]: 3%
- viability, T/C [32]: 1.97%
- viability, T/C [33]: 1.19%
- viability, T/C [34]: 1.05%
- viability, T/C [35]: 1.12%
- viability, T/C [36]: 0.68%

- IC50 (second compound 0.000949 µM): 7.3 nM
- IC50 (second compound 0.003 µM): 6.69 nM
- IC50 (second compound 0.00949 µM): 6.61 nM
- IC50 (second compound 0.03 µM): < 3.16 nM
- IC50 (second compound 0.0949 µM): < 3.16 nM
- IC50 (second compound 0.3 µM): < 3.16 nM
SMILES: Nc1ccn(C2OC(CO)C(O)C2(F)F)c(=O)n1 (stereo unspecified) + CCn1c(-c2cc(N3CCN(C)CC3)cnc2C(C)OC)c2c3cc(ccc31)-c1csc(n1)CC(NC(=O)C1CC1C)C(=O)N1CCCC(N1)C(=O)OCC(C)(C)C2
- viability, T/C [1]: 110%
- viability, T/C [2]: 27.6%
- viability, T/C [3]: 2.05%
- viability, T/C [4]: 2.16%
- viability, T/C [5]: 1.6%
- viability, T/C [6]: 1.6%
- viability, T/C [7]: 105%
- viability, T/C [8]: 20.4%
- viability, T/C [9]: 2.07%
- viability, T/C [10]: 1.75%
- viability, T/C [11]: 1.35%
- viability, T/C [12]: 1.62%
- viability, T/C [13]: 127%
- viability, T/C [14]: 6.62%
- viability, T/C [15]: 1.99%
- viability, T/C [16]: 2.73%
- viability, T/C [17]: 1.58%
- viability, T/C [18]: 1.35%
- viability, T/C [19]: 15.2%
- viability, T/C [20]: 3.12%
- viability, T/C [21]: 1.8%
- viability, T/C [22]: 1.5%
- viability, T/C [23]: 1.42%
- viability, T/C [24]: 1.24%
- viability, T/C [25]: 2.68%
- viability, T/C [26]: 1.67%
- viability, T/C [27]: 1.66%
- viability, T/C [28]: 1.4%
- viability, T/C [29]: 1.18%
- viability, T/C [30]: 1.05%
- viability, T/C [31]: 1.41%
- viability, T/C [32]: 1.1%
- viability, T/C [33]: 1.1%
- viability, T/C [34]: 1.32%
- viability, T/C [35]: 1.02%
- viability, T/C [36]: 0.86%
